Test results reported in ChEMBL document CHEMBL1201862, “PubChem BioAssay data set” (2004).
Active and inactive are the calls of the source.

How the values were obtained:
Mu-type opioid receptor = Mu-type opioid receptor (Homo sapiens, UniProt P35372); format: functional, cell-based;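 further: U2OS cells with beta-arrestin recruitment to OPRM1 by beta-gal complementation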
[1] = molecular target: 5-hydroxytryptamine receptor 2A (Mus musculus, UniProt P35363); format: functional, cell-based;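 further: CHO-K1 cells with tagged receptor and beta-arrestin; agonist potency measured as compound-induced activation of the receptor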
5-hydroxytryptamine receptor 2A, sequence (P35363 whole entry): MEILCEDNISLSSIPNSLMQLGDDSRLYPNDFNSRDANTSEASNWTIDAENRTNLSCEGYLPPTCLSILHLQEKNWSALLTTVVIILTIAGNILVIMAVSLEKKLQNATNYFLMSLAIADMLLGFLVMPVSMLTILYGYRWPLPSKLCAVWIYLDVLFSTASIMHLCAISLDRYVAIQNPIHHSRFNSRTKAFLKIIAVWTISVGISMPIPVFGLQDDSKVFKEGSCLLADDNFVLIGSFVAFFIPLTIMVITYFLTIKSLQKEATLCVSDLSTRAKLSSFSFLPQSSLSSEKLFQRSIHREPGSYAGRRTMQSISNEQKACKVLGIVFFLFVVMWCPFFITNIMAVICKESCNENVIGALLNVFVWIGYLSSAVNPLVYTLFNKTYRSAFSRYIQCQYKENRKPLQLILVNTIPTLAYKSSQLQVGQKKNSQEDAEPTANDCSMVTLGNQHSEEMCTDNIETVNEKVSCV

[2] = molecular target: T1, Small ubiquitin-related modifier 1 (Homo sapiens, UniProt P63165); assay: SUMO1 protein-protein binding blockers, potency – biochemical, FRET, dose response (AID 624383); format: functional; settings: read-out: IC50_Mean
T1 sequence (P63165 whole entry): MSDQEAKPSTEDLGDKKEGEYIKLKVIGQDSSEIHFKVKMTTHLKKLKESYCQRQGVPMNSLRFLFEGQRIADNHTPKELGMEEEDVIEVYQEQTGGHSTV

[3] = molecular target: T2, Corticotropin-releasing factor receptor 2/Corticotropin-releasing factor-binding protein (Homo sapiens, UniProt P24387+Q13324); assay: activators of CRF receptor 2 with binding protein – uHTS hits, confirmation (AID 602473); format: functional; settings: read-out: EC50_Mean
T2 sequence (Q13324 whole entry): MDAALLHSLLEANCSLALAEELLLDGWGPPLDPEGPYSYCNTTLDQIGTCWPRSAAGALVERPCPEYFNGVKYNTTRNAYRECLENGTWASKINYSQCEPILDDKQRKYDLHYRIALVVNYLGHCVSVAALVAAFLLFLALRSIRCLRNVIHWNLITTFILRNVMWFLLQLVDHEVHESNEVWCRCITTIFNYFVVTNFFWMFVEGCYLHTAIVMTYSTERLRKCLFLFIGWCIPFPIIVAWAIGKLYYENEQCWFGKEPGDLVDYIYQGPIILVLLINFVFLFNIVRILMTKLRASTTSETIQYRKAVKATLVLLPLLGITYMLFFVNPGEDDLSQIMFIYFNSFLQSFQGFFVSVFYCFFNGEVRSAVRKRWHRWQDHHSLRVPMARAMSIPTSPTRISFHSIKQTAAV
T2 sequence (P24387 whole entry): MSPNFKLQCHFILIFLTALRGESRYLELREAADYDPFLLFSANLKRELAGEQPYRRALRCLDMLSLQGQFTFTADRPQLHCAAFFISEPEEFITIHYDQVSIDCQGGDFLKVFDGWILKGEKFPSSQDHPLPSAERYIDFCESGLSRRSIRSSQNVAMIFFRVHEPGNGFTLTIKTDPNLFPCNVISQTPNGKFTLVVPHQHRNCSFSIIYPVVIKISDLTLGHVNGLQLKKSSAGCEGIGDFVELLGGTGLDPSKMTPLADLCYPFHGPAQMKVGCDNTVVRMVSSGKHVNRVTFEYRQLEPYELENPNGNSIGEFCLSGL

[4] = molecular target: T1, Small ubiquitin-related modifier 1; assay: SUMO1 protein interaction blockers, potency – biochemical, fluorescence polarization, uHTS hits, dose response (AID 624382); format: functional; settings: read-out: IC50_Mean
[5] = Counterscreen for activators of the function of SWI/SNF related, matrix associated, actin dependent regulator of chromatin, subfamily a, member 2 (SMARCA2, BRM): Luminescence-based cell-based high throughput dose response assay to identify non-selective compounds using the VP16 reporter assay.; format: functional
Cytochrome P450 2C19 = Cytochrome P450 2C19 (Homo sapiens, UniProt P33261); assay: Cytochrome panel assay with activity outcomes. Panel member name: p450-cyp2c19 Compounds with AC50 equal or less than 10 uM are considered active; format: functional; settings: read-out: AC50
Cytochrome P450 2C19, sequence (P33261 whole entry): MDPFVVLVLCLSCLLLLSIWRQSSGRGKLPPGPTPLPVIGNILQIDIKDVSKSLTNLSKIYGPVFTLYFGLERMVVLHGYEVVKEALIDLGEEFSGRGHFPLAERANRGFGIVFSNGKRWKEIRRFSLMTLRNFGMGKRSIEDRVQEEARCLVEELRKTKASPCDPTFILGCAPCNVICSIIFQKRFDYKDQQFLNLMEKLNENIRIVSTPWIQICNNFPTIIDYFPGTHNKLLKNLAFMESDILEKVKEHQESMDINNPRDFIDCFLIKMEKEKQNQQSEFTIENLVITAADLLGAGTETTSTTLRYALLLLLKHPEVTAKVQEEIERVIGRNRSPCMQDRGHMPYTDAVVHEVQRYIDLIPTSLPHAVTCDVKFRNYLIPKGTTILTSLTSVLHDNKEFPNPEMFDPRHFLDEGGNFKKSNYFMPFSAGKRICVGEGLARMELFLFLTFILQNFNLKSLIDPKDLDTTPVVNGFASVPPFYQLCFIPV

[6] = molecular target: SWI/SNF-related matrix-associated actin-dependent regulator of chromatin subfamily A member 2 (Homo sapiens, UniProt P51531); assay: Luminescence-based cell-based high throughput dose response assay to identify activators of the function of SWI/SNF related, matrix associated, actin dependent regulator of chromatin, subfamily a, member 2 (SMARCA2, BRM).; format: functional
SWI/SNF-related matrix-associated actin-dependent regulator of chromatin subfamily A member 2, sequence (P51531 whole entry): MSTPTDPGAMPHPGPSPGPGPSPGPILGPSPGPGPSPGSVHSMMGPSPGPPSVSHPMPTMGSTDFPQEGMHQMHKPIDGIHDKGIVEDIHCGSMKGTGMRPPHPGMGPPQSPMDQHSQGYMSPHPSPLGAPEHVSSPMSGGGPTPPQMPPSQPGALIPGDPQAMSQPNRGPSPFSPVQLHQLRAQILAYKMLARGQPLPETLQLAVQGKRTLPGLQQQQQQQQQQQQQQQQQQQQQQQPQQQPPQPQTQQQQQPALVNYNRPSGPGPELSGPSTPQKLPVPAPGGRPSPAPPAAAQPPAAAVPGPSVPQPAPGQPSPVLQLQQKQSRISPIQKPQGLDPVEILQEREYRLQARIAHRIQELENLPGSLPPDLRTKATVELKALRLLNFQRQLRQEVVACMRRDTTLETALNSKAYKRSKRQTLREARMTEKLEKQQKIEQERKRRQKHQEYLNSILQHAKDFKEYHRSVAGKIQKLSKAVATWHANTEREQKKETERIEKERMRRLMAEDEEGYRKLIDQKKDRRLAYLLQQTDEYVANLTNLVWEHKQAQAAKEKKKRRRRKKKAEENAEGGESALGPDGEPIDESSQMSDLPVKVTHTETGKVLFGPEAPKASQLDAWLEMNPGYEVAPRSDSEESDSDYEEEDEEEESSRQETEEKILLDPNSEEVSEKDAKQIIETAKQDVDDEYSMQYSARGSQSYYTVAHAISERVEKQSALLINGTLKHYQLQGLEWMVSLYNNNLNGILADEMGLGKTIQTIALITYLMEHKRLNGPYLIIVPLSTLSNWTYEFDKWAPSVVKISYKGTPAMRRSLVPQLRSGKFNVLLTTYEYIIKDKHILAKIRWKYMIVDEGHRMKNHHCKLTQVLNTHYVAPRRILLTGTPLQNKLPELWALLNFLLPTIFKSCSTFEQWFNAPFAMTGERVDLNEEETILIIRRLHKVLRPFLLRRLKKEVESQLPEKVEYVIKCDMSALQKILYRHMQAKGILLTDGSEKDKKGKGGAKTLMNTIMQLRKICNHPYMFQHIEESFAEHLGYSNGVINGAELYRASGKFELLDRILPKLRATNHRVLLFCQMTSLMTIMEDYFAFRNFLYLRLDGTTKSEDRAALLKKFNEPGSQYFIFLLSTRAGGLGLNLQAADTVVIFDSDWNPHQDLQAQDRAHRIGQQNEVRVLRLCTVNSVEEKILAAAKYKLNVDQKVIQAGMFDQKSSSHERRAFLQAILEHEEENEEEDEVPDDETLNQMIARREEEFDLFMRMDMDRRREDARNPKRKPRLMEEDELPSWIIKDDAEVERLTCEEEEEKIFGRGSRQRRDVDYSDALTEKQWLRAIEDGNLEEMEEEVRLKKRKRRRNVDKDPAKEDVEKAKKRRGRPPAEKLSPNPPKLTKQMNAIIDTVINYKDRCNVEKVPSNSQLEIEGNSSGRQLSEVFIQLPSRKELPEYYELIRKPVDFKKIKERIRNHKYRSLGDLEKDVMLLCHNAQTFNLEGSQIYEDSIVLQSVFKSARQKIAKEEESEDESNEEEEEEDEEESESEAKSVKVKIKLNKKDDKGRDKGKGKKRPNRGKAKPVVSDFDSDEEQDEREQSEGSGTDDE

A549 = assay: viability loss in A549 cells – cell-based, plate reader, cherry-pick samples, cytotoxicity control, dose response (AID 687028); format: functional; settings: Homo sapiens
[7] = molecular target: FAD-linked sulfhydryl oxidase ALR (Homo sapiens, UniProt P55789); assay: ALR-catalysed DTT oxidation blockers – biochemical, H2O2 detection, luminescence, cherry-pick, dose response (AID 493248)
FAD-linked sulfhydryl oxidase ALR, sequence (P55789 whole entry): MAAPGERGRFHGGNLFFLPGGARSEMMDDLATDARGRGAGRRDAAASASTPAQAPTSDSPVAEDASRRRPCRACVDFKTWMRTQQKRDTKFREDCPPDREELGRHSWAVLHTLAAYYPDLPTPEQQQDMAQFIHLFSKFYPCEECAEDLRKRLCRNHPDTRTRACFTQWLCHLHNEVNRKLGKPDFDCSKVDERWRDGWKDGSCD

Albumin = Albumin (Bos taurus, UniProt P02769); assay: Counterscreen for inhibitors of T-cell receptor (TCR)-CD3 interaction: Fluorescence-based biochemical high throughput dose response assay to identify inhibitors of T-cell receptor (TCR)-CD3 interaction using a TAMRA-labeled BSA probe.; format: functional
Albumin, sequence (P02769 whole entry): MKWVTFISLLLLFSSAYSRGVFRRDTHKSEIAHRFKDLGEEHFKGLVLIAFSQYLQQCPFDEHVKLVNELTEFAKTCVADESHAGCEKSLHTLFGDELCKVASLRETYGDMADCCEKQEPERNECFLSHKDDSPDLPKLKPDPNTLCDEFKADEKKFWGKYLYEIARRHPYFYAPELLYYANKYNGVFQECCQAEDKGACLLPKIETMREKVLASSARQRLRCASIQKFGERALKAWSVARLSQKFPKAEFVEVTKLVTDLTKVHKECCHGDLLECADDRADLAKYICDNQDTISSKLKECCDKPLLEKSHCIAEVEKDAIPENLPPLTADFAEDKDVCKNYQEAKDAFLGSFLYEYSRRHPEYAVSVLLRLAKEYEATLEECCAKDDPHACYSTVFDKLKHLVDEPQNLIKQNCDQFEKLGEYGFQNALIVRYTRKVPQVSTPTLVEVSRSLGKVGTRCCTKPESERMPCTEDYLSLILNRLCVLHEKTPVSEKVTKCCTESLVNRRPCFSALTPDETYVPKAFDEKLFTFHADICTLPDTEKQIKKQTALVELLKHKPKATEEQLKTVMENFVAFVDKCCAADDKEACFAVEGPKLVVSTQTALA

Large T antigen = Large T antigen (Simian virus 40, UniProt P03070); format: functional, Betapolyomavirus macacae;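 further: Confirmatory-stage PubChem screen for compounds that inhibit SV40 T antigen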
Large T antigen, sequence (P03070 whole entry): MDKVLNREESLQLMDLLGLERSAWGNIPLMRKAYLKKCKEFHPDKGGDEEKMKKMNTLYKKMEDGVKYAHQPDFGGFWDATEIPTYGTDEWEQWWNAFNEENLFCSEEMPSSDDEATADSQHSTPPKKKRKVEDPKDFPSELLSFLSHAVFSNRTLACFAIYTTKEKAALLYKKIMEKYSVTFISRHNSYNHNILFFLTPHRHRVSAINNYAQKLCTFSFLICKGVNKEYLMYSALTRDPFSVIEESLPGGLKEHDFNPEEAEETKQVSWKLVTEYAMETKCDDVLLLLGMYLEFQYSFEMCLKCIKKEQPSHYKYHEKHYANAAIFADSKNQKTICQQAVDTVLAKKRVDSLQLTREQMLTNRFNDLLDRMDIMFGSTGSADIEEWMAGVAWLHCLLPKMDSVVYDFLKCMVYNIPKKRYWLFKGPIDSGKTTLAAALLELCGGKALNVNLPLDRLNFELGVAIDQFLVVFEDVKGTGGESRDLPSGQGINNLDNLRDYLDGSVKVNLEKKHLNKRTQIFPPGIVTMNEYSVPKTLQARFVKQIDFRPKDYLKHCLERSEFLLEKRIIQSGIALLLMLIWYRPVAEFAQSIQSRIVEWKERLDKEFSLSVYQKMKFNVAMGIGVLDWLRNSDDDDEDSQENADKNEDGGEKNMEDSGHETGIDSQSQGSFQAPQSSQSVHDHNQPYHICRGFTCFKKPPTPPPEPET

[8] = molecular target: T3, Rac GTPase-activating protein 1 (Homo sapiens, UniProt Q9H0H5); assay: blockers of MgcRacGAP-driven Rac1 GTP hydrolysis – biochemical, ADP Hunter fluorescence, primary and confirmatory, confirmation (AID 624330); format: functional
T3 sequence (Q9H0H5 whole entry): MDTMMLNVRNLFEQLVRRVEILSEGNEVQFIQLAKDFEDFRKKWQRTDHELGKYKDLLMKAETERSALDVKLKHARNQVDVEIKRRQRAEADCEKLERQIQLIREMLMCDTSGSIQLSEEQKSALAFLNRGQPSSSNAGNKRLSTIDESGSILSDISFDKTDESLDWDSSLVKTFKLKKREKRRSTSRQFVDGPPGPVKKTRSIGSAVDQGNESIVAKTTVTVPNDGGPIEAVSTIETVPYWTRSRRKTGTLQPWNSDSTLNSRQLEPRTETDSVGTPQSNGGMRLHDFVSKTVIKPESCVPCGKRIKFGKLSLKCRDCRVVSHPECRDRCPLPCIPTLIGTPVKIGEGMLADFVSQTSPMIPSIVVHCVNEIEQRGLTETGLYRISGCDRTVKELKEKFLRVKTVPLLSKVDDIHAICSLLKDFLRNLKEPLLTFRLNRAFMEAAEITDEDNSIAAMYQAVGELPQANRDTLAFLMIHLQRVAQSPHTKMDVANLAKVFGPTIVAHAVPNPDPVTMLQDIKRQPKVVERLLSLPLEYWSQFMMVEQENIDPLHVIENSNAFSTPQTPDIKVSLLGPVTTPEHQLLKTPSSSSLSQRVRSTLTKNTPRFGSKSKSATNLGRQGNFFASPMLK

[9] = molecular target: T4, Heat shock factor protein 1 (Mus musculus, UniProt P38532); assay: enhancement of HSF1-driven luciferase signal – cell-based, NIH3T3, luminescence, dose retest, confirmation (AID 435004); format: functional;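 further: stress induced by proteasome inhibitor MG132 added 30 min after compound; luciferase reporter driven by HSF1 response element in NIH3T3 cells; actives raise luminescence as potentiators of the MG132 stress response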
T4 sequence (P38532 whole entry): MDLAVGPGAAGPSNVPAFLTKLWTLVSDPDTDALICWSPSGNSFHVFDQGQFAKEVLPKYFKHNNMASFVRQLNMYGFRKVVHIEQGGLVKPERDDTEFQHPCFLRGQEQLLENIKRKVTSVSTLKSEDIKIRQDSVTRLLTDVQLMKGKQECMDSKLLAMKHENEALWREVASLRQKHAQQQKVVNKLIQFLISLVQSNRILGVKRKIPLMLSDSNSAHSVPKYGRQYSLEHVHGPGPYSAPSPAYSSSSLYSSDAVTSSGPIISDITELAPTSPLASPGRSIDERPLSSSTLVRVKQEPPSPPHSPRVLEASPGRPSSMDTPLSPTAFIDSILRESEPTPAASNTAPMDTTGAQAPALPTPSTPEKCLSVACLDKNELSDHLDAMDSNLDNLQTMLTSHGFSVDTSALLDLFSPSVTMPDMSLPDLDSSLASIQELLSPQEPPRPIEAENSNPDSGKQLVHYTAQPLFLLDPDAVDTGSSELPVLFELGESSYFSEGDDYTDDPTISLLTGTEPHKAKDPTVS

[10] = molecular target: T5, Sentrin-specific protease 1 (Homo sapiens, UniProt Q9P0U3); assay: SENP1 catalytic domain blockers, concentration series – biochemical, kinetic FRET, dose response (AID 651697); format: functional; settings: read-out: IC50_Mean
T5 sequence (Q9P0U3 whole entry): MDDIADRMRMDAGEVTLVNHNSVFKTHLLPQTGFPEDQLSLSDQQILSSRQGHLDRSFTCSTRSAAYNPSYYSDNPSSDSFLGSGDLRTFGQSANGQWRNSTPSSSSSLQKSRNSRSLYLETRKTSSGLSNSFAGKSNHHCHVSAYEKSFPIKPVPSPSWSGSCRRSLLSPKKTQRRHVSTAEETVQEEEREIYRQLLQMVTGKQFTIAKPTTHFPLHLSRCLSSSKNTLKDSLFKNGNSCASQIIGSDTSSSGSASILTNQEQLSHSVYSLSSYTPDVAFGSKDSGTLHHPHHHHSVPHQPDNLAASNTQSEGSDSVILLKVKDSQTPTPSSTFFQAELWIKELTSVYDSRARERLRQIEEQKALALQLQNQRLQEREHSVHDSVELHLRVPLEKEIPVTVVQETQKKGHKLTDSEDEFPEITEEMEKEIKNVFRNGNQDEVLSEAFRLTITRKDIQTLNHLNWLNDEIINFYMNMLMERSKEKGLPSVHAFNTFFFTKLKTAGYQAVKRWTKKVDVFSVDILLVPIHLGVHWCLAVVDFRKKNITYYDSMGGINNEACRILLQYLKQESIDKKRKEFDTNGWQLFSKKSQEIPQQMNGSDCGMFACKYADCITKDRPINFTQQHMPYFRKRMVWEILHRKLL

[11] = Counterscreen for inhibitors of Trypanosoma brucei methionyl tRNA synthetase (MetRS): Luminescence-based cell-based high throughput dose response assay to identify compounds that are cytotoxic to Jurkat human T lymphocyte cells.; format: functional
[12] = molecular target: T5, Sentrin-specific protease 1; assay: Dose response confirmation of small molecule inhibitors of the catalytic domain of the SUMO protease, SENP1 in a FRET assay.; format: functional; settings: read-out: IC50_Mean
[13] = fluconazole-exposed Candida albicans growth modulators – fluorescence, retest, confirmation (AID 2467); format: functional, cell-based
[14] = molecular target: T6, Methionyl-tRNA synthetase, putative (Trypanosoma brucei brucei, UniProt Q38C91); format: functional, Trypanosoma brucei brucei strain 927/4 GUTat10.1
T6 sequence (Q38C91 whole entry): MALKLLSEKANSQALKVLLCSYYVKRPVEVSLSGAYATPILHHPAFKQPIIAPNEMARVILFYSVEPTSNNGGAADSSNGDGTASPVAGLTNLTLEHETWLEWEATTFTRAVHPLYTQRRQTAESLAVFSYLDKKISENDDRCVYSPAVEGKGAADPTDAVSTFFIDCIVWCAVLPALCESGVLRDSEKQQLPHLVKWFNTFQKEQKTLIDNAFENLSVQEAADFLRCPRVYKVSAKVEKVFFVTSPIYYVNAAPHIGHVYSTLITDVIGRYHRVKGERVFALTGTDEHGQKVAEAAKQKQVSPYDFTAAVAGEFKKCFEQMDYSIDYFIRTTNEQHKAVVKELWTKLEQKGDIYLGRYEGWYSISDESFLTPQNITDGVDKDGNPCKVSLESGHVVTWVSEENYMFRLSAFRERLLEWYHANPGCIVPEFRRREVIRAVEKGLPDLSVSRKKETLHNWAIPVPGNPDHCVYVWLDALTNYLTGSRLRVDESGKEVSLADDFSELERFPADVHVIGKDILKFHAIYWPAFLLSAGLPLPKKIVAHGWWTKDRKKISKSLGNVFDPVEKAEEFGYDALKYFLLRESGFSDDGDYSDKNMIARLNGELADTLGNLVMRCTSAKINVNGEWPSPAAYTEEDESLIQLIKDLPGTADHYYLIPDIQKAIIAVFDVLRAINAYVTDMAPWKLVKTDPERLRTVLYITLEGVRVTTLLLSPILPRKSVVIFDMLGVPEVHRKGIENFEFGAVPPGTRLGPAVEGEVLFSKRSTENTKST

[15] = NIH-3T3 fibroblast cytotoxicity, dose response, cytotoxicity control, cell-based, fluorescence, Alamar Blue, secondary assay (AID 2327); format: functional;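 further: NIH-3T3 mouse fibroblasts cultured with fluconazole at 8 µg/mL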
[16] = molecular target: T6, Methionyl-tRNA synthetase, putative; format: functional, Trypanosoma brucei brucei strain 927/4 GUTat10.1; remark: listed apart in the source
Paired box protein Pax-8 = Paired box protein Pax-8 (Homo sapiens, UniProt Q06710); assay: PAX8 transcriptional activity inhibition in RMG-I – RMG-I cells, luciferase, cherry-pick, dose response (AID 687027); format: functional, cell-based;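 further: luciferase reporter driven by Pax8 target thyroperoxidase promoter measured by SteadyGlo luminescence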
Paired box protein Pax-8, sequence (Q06710 whole entry): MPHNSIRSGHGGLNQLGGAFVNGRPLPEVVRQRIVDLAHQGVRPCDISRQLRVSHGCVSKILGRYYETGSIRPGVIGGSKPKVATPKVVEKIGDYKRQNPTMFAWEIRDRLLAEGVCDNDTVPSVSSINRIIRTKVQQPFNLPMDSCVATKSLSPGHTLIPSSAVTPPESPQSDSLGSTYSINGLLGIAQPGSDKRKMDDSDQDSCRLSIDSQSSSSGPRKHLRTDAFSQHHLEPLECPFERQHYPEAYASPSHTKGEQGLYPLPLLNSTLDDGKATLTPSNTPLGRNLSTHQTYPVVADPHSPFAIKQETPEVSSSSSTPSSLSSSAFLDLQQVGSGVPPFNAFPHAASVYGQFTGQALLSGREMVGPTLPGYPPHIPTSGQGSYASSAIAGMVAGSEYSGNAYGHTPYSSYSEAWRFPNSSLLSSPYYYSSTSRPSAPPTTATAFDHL

[17] = IGROV1 cell killing – plate reader, dry powder samples, PAX8 inhibitor project, dose response (AID 743043); format: functional, cell-based; settings: IGROV-1
[18] = cytotoxicity in HEK293 background cells – cell-based, dry powder, set 2, counter-screen for EBV LMP1 inhibitor project, dose response (AID 624374); format: functional

Mu-type opioid receptor, sequence (P35372 whole entry): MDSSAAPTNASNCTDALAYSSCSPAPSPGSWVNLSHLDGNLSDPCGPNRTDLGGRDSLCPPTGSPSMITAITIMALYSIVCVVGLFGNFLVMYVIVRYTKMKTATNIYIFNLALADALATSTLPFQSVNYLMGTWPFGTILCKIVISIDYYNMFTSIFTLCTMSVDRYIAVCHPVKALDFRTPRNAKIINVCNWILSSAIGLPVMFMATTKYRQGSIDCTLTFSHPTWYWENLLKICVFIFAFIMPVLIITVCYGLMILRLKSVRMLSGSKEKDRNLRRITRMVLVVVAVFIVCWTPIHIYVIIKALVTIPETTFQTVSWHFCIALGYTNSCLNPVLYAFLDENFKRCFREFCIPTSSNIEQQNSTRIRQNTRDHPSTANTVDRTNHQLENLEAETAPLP

Compound: Cc1ccsc1CN1CCN(c2ccccn2)CC1
- EC50 (Mu-type opioid receptor): 92.5 µM (inactive)
- EC50 [1]: 0.282 µM (active)

Compound: COC(=O)c1ccc2c(c1)C(=O)/C(=C/c1ccc(O)cc1)O2
- IC50 [2]: 7.4 µM (active)
- EC50 [3]: > 53 µM (inactive)
- IC50 [4]: > 66.6 µM (inactive)

Compound: Cc1cccc(NC(=O)c2ccc([N+](=O)[O-])o2)n1
- EC50 [5]: > 91.1 µM (inactive)
- AC50 (Cytochrome P450 2C19): 20 µM (inconclusive)
- EC50 [6]: > 91.1 µM (inactive)

Compound: CC(C)(C)NC(=O)C(c1cccc2ccccc12)n1c(=O)c(-c2ccccc2)nc2ccccc21 (stereo not drawn)
- AC50 (A549): 8.91 µM (active)

Compound: O=C(NCc1ccc2c(c1)OCO2)C(=O)NCC1OCCCN1S(=O)(=O)c1ccccc1 (stereo not drawn)
- AC50 (A549): 27.9 µM (active)

Compound: Oc1ccc(/C=N/Nc2ncnc3c2ncn3Cc2ccccc2)cc1O
- AC50 [7]: 2.19 µM (active)
- IC50 (Albumin): > 94.1 µM (inactive)
- IC50 (Large T antigen): 3.87 µM (active)
- IC50 [8]: 23 µM (active)

Compound: CC(CCc1ccccc1)NC(=O)CN1CCc2ccccc2C1 (stereo not drawn)
- EC50 [9]: > 260 µM (inactive)
- EC50 (Mu-type opioid receptor): 92.5 µM (inactive)
- EC50 [1]: 76.1 µM (inactive)

Compound: CCOc1cc(/C=C2\SC(=S)N(NS(=O)(=O)c3ccccc3)C2=O)ccc1O
- IC50 [10]: 3.73 µM (active)
- IC50 [11]: 83.3 µM (inactive)
- IC50 [12]: 2.41 µM (active)
- EC50 [13]: 1.88 µM (active)
- IC50 [14]: 41.8 µM (inactive)
- EC50 [15]: > 150 µM (inactive)
- IC50 [16]: 122 µM (inactive)

Compound: Nc1ccc([N+](=O)[O-])cc1C(=O)NNC(=O)c1ccco1
- IC50 (Albumin): > 94.1 µM (inactive)

Compound: C[C@@H]1CN([C@@H](C)CO)C(=O)Cc2cc(NS(=O)(=O)c3ccc(Cl)cc3)ccc2O[C@H]1CN(C)Cc1ccc(Cl)c(Cl)c1
- AC50 (Paired box protein Pax-8): 4.26 µM (active)
- AC50 [17]: 38.5 µM (active)

Compound: O=C(Cc1ccccn1)NCC[C@@H]1CC[C@@H](NC(=O)Nc2ccc(Cl)cc2)[C@H](CO)O1
- AbsAC35 [18]: 175.41 µM
